Consider 1 compound from ChEMBL document CHEMBL4673296 (J Med Chem, 2020).

Activity calls are given as the source filed them. The rule behind the calls is not given here.

A short description of series [1]: Efflux ratio of apparent permeability from basolateral side to apical side over apical side to basolateral side in human Caco2 cells. The following applies: Caco-2. Format: ADME, cell-based. (Passage across Caco-2 layers is used to estimate intestinal permeability.)
Series [2] deals with MDA-MB-468. Briefly: Induction of apoptosis in human MDA-MB-468 cells assessed as necrotic cells at 10 uM measured after 18 hrs in low-glucose, amino acid-free Earles balanced salt solution (EBSS) media by AnnexinV/7-AAD staining based flow cytometric analysis (reference value: 0.1%). Type of series: functional. (Flow cytometry measures light scatter and fluorescence of single cells or particles in a stream.)

The test system of series [3] is MDA-MB-468. Briefly: Induction of apoptosis in human MDA-MB-468 cells assessed as late apoptotic cells at 10 uM measured after 18 hrs in low-glucose, amino acid-free Earles balanced salt solution (EBSS) media by AnnexinV/7-AAD staining based flow cytometric analysis (reference value: 7.6%). Format: functional.
The subject of series [4] is Mus musculus. Briefly: Decrease in total ATG13 level in liver lysate of C57BL/6J mouse at 10 mg/kg, po measured after 2 hrs by Western blot analysis. Type of series: functional, organism-based. (In general: In western blotting, separated proteins are transferred to a membrane and probed.)
Series [5] has as its system MDA-MB-468. The series is described as follows: Synergistic cytotoxicity against human MDA-MB-468 cells at 0.19 to 1.7 uM in presence of PARP inhibitor niraparib measured after 72 hrs by Celltiter-Glo assay. Format: functional, cell-based. Conditions: dose 0.19-1.7 µM.
Series [6] addresses T1, Serine/threonine-protein kinase ULK2 (Homo sapiens, UniProt Q8IYT8).
T1 sequence (Q8IYT8 whole entry): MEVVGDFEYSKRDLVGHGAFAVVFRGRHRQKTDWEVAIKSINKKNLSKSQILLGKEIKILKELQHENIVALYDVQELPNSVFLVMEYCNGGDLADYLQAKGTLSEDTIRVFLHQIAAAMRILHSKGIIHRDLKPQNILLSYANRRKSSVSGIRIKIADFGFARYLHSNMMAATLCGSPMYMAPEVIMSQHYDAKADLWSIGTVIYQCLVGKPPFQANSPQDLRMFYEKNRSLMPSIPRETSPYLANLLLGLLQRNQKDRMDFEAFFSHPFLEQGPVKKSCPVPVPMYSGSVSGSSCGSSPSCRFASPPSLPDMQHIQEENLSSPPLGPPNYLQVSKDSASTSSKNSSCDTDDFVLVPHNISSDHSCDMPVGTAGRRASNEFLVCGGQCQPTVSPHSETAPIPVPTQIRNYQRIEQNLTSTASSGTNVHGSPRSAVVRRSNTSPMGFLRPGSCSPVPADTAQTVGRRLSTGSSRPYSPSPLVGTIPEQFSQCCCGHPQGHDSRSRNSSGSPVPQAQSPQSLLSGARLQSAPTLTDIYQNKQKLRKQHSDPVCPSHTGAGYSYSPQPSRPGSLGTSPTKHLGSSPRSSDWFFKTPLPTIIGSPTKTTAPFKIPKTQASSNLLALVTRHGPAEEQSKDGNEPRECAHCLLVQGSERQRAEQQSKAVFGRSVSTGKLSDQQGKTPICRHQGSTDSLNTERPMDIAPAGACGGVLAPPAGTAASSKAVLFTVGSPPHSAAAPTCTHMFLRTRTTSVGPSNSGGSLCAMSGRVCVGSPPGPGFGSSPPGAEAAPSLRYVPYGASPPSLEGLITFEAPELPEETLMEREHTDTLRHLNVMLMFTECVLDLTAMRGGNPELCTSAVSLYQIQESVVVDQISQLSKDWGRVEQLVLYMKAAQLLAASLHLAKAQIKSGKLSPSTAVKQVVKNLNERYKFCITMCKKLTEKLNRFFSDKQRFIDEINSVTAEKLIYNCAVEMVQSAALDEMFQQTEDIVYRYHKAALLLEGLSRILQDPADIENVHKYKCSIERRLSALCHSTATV
Briefly: Inhibition of ULK2 (unknown origin) expressed in HEK293T cells incubated for 2 hrs by NanoBRET assay. Type of series: cell-based.

Series [7] addresses T2, Serine/threonine-protein kinase ULK1 (Homo sapiens) (UniProt O75385).
T2 sequence (whole entry): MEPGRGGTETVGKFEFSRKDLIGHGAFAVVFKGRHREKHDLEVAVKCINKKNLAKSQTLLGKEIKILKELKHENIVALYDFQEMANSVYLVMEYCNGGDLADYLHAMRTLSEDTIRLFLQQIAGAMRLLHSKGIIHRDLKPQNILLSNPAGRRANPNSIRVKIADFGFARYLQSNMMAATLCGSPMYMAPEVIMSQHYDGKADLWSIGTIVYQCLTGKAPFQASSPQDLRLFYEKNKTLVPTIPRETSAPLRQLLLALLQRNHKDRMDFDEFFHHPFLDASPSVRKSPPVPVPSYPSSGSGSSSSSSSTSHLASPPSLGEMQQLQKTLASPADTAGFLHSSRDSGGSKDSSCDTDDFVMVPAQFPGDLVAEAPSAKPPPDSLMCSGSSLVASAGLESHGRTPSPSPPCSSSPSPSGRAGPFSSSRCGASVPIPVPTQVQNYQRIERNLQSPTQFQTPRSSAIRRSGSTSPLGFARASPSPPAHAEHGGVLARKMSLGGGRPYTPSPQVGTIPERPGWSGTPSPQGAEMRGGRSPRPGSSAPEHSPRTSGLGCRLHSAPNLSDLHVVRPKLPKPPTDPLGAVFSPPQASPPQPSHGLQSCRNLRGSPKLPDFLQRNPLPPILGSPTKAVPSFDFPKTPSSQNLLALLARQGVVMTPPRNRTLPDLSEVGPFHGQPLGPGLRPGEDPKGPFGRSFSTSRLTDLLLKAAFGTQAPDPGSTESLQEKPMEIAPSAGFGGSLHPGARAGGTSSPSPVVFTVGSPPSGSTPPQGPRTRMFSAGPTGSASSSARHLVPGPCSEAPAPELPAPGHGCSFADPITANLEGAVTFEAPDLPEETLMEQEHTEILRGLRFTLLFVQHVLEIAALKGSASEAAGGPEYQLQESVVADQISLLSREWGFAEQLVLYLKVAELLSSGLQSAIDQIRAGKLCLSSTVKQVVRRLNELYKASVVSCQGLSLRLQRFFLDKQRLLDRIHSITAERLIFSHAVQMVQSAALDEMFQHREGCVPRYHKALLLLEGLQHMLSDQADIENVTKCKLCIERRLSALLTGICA
The series is described as follows: Inhibition of Myc-tagged ULK1 (unknown origin) expressed in HEK293T cells cotransfected with wild-type Flag tagged Vps34 assessed as decrease in pVPS34 Ser249 at 10 uM measured after 1 hr by Western blot analysis relative to control. Type of series: cell-based.

The subject of series [8] is MDA-MB-468. Briefly: Induction of apoptosis in human MDA-MB-468 cells assessed as early apoptotic cells at 10 uM measured after 18 hrs in normal growth media by AnnexinV/7-AAD staining based flow cytometric analysis (reference value: 5.6%). Type of series: functional.
For series [9], the target named is T2, Serine/threonine-protein kinase ULK1 (Homo sapiens). The series is described as follows: Inhibition of Myc-tagged ULK1 (unknown origin) expressed in HEK293T cells cotransfected with wild-type Flag tagged Beclin-1 assessed as decrease in pBeclin1 Ser15 at 10 uM measured after 1 hr by Western blot analysis relative to control. Type of series: cell-based.
For series [10], the system named is Mus musculus. The series is described as follows: Ex vivo inhibition of ULK1 in liver lysate of C57BL/6J mouse assessed as decrease in pATG13 (Ser318) levels at 10 mg/kg, po measured after 2 hrs by Western blot analysis. Format: functional, organism-based.
The nature of series [11]: Apparent permeability of the compound across apical side to basolateral side in human Caco2 cells. Format: ADME, cell-based. The following applies: Caco-2.
The nature of series [12]: Cmax in C57BL/6J mouse at 30 mg/kg, po measured upto 24 hrs by LC-MS/MS analysis. Type of series: ADME, organism-based. Also noted: route oral, dose 30 mg/kg, time <=24. The following applies: in vivo.

In general, efflux ratio refers to the permeability from basolateral to apical divided by that in the opposite direction, in the common usage. The inhibition is the relative decrease from the control value, in per cent. One may read the IC50 as the midpoint of a concentration-inhibition curve. Low readings indicate greater potency in that assay, high ones weaker potency in that assay. The Papp A→B is how fast a substance crosses the layer from the apical side. Usually Cmax stands for the maximum level reached in the sampled fluid or tissue. Regarding `COc1ccc(Nc2ncc(C(F)(F)F)c(NC3CC3)n2)cc1OC`, the efflux ratio in series [1] is under 2. Further, the Activity is recorded as 0.1% in the series with MDA-MB-468 [2], 18.4% with MDA-MB-468 [3] and 28.9% with MDA-MB-468 [8]. The inhibition entry in the series with Mus musculus [4] and with Mus musculus [10] was “Active” in each case. Further, the outcome in the series on MDA-MB-468 [5] was Active. The compound also came in with an IC50 in [6] of 1160 nM. The inhibition turned out to be 90% in series [7] and 60% in series [9]. Also, the apical-to-basolateral permeability (Papp A→B) in series [11] is over 10 ×10⁻⁶ cm/s. In series [12], this compound gave a Cmax of 990 nM.
